Data on five compounds can be found in US7820699B2, “Cyclic amines” (Hoffmann-La Roche Inc., priority 2005, dated 2010).

The target of the test is T1, human factor Xa (Homo sapiens, UniProt P00742).
T1 construct: purchased Enzyme Research Laboratories
Description: chromogenic peptide substrate assay, inhibition of factor Xa. The class given is biochemical. As to conditions: human factor Xa 3 nM, chromogenic substrate S-2222, pH 7.8, room temperature; Ki from IC50 by Cheng-Prusoff. The protocol: Factor Xa activity was measured spectrophotometrically in microtiter plates in a final volume of 150 μl using the following conditions: Inhibition of human factor Xa (Enzyme Research Laboratories) was tested at an enzyme concentration of 3 nM using the chromogenic substrate S-2222 (Chromogenix AB, Molndal, Sweden) at […]. The reaction kinetics of the enzyme and the substrate were linear with both time and the enzyme concentration. The inhibitors were dissolved in DMSO and tested at various concentrations up to 100 μM. The inhibitors were diluted using HNPT buffer consisting of HEPES 100 mM, NaCl 140 mM, PEG 6000 0.1% and Tween 80 0.02%, pH 7.8. The cleavage of S-2222 by human factor Xa was followed at 405 nm for 5 minutes at room temperature. The velocity of the reaction was determined by the autoreader from the slope of the linear regression fit to 7 time points (1 minute). The initial velocity for each inhibitor concentration was determined by the slope of at least 4 time points in the linear phase by a linear regression fit […]. Apparent dissociation constants Ki were calculated according to Cheng and Prusoff [Cheng, Y. C.; Prusoff, W. H. Relationship between the inhibition constant (Ki) and the concentration of the inhibitor that causes 50 percent inhibition (IC50) of an enzyme reaction. Biochem. Pharmacol. 1973, 22, 3099-3108.] based on the IC50 and the respective Km, determined previously (Ki=IC50/(1+S/Km)). The Km for the substrate used was determined under the conditions of the test with at least 5 substrate concentrations ranging from 0.5 to 15 times Km. [Lottenberg R, Hall J A, Blinder M, Binder E P, Jackson C M., The action of thrombin on peptide p-nitroanilide substrates. Substrate selectivity and examination of hydrolysis under different reaction conditions. Biochim Biophys Acta. 1983 Feb. 15; 742(3):539-57]. According to Eadie [Eadie G. S. The inhibition of cholinesterase by physostigmine and prostigmine. J. Biol. Chem. 1942, 146, 85-93.], the Km for S-2222 amounted to 613 μM.

T1 sequence (P00742 235-488 limits assumed): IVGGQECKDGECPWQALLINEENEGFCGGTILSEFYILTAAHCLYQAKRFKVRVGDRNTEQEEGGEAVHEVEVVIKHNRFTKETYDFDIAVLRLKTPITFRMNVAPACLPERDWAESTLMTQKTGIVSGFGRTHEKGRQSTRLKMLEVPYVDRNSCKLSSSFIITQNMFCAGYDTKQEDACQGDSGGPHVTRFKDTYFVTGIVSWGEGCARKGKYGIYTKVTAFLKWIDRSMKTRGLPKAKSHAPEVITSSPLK
T1 sequence (P00742 41-179 partner limits assumed): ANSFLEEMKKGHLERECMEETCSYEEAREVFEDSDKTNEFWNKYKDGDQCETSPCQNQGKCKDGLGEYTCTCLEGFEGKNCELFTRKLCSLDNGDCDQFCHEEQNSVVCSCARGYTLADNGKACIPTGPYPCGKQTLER

For the compound `CC(C(=O)Nc1ccc(-n2ccccc2=O)cc1F)N1CC[C@@H](NC(=O)c2ccc(Cl)s2)C1` (stereo partly drawn) [Example 6, 5-chloro-thiophene-2-carboxylic acid ((R)-1-{1-[2-fluoro-4-(2-oxo-pyridin-1-yl)-phenylcarbamoyl]-ethyl}-pyrrolidin-3-yl)-amide], the Ki turned out to be 0.017 µM.

For `CO[C@H]1CN(CC(=O)Nc2ccc(N3CCOCC3=O)cc2F)C[C@@H]1NC(=O)c1ccc(Cl)s1` [Example 26, 5-chloro-thiophene-2-carboxylic acid ((3S,4S)-1-{[2-fluoro-4-(3-oxo-morpholin-4-yl)-phenylcar-bamoyl]-methyl}-4-methoxy-pyrrolidin-3-yl)-amide], the Ki came out at 0.014 µM.

As to `O=C(NC[C@H]1CCN(C(=O)Nc2ccc(-n3ccccc3=O)cc2F)C1)c1ccc(Cl)s1` [Example 54, (R)-3-{[(5-chloro-thiophene-2-carbonyl)-amino]-methyl}-pyrrolidine-1-carboxylic acid[2-fluoro-4-(2-oxo-2H-pyridin-1-yl)-phenyl]-amide], the Ki worked out at 0.013 µM.

Compound `O=C(NC[C@@H]1CN(C(=O)Nc2ccc(-n3ccccc3=O)cc2F)C[C@H]1C(F)(F)F)c1ccc(Cl)s1` [Example 77, (3R,4S)-3-{[(5-chloro-thiophene-2-carbonyl)-amino]-methyl}-4-trifluoromethyl-pyrrolidine-1-carboxy-lic acid[2-fluoro-4-(2-oxo-2H-pyridin-1-yl)-phenyl]-amide] had a Ki of 0.008 µM.

`CN(C1CN(C(=O)Nc2ccc(-n3ccccc3=O)cc2F)C[C@H]1CNC(=O)c1ccc(Cl)s1)S(C)(=O)=O` (stereo partly drawn) [Example 85, (R)-3-{[(5-chloro-thiophene-2-carbonyl)-amino]-methyl}-4-(methanesulfonyl-methyl-amino)-pyrrolidine-1-carboxylic acid[2-fluoro-4-(2-oxo-2H-pyridin-1-yl)-phenyl]-amide]: the Ki turned out to be 0.012 µM.
